Measurements taken from the NIST ThermoML archive (doi:10.1021/acs.jced.9b00794).
Numbers after ± are expanded uncertainties.

Settings: 100 kPa, Liquid, Vibrating tube method

SMILES | mass density (288.15 K) | mass density (298.15 K) | mass density (308.15 K) | mass density (318.15 K) | mass density (328.15 K)
NC=O [formamide] | 1137.91 ± 0.11 kg/m3 | 1129.49 ± 0.11 kg/m3 | 1121.04 ± 0.11 kg/m3 | 1112.55 ± 0.1 kg/m3 | 1104.04 ± 0.1 kg/m3
O [water] |  |  |  |  | 985.69 ± 0.05 kg/m3
